# Data from US11878973B2, “Bicyclic compounds and their uses” (NOVARTIS AG, priority 2021, dated 2024).
# Where two headings read alike, the source gives them in different places.
# Assays:
# [1] = target: WRN helicase (Homo sapiens (Human), UniProt Q14191); assay: In vitro enzymatic activity assay on WRN helicase (DNA dependent ATPase assay, ADP-Glo); type: biochemical; settings: geometric means of at least 2 determinations; read-out: WRN ATPase Activity (IC50)
# Text: An ATPase assay was set up to measure the DNA dependent ATP hydrolysis activity of WRN helicase. This assay was used also to assess the inhibition properties of compounds of the invention on DNA dependent WRN ATPase activity.
# The core helicase motif of the WRN protein (aa N517-P1238) was produced for this assay (protein production as described above). […] The ADP-Glo assay kit (Promega, Madison, WI) allowing the quantification of ADP produced in ATP hydrolysis reactions was used for setting up this assay.
# Time course experiments were first performed in order to determine the best enzymatic assay conditions (including buffer conditions, reaction time and concentrations of protein, ATP and DNA substrates). A typical reaction consists of 10 nM WRN protein, 0.2 nM FLAP26, and 300 micromolar ATP in the following assay buffer: 30 mM Tris pH7.5, 2 mM MgCl2, 0.02% BSA, 50 mM NaCl, 0.1% pluronic F127 prepared in DNAse free water. To evaluate the inhibition properties of compounds of the invention, serial dilutions were prepared in DMSO (10 half log dilutions from a 10 mM DMSO solution). […] The reaction was started by addition of 2.5 microliters of FLAP26 at 0.4 nM and incubated for 30 minutes at room temperature. The reaction was stopped with the addition of 5 microliters of the first ADP-Glo reagent and incubated for one hour to remove the excess amount of ATP. Afterwards, 10 microliters of ATP detection reagent was added and incubated for an additional hour before reading. Luminescence output was recorded using Tecan 1000 reader, with 5 minutes delay before reading. Each concentration of compound was tested in duplicates in the assay plate.
# Following normalization of activity values for the wells to % inhibition (% inhibition=[(high control-sample)/(high control-low control)]×100), IC50 fitting was carried out from the duplicate determinations present on each plate according to [4]. Data analysis can also be carried out using commercially available software designed to derive IC50 values using 4-parameter fits (e.g. GraphPad Prism, XL fit). The reported IC50 values are the geometrical means of at least 2 independent replicates.
# [2] = system: SW48 cells; assay: Proliferation assay SW48 (CellTiterGlo, 96 hours)
# [3] = system: DLD1-WRN-KO cells; assay: Proliferation assay DLD1-WRN-KO (CellTiterGlo, 96 hours; off-target effects); settings: read-out: Proliferation Assay DLD1-WRN-KO (GI50)
# [4] = Homo sapiens, SW48, read-out: Proliferation Assay SW48 (GI50)
# WRN helicase, sequence (Q14191 517-1238): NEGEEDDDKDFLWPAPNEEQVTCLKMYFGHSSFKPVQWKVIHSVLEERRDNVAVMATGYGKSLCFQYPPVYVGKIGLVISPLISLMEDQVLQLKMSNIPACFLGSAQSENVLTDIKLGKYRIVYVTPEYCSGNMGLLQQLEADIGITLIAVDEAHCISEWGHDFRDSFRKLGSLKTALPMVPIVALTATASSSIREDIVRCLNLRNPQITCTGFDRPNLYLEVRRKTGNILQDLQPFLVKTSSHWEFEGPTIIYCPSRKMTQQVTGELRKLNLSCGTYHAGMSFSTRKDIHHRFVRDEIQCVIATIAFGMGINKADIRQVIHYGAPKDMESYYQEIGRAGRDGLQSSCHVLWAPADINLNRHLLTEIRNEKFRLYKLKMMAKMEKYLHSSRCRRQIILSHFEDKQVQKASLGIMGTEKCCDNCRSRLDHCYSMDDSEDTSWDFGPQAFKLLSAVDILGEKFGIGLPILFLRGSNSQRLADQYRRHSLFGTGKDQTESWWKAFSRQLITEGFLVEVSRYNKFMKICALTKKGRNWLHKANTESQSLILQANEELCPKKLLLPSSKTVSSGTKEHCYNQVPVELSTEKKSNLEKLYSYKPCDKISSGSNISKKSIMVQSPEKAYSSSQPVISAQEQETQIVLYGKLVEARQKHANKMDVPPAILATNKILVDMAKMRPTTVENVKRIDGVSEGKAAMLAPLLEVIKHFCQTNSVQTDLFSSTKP
IC50 [1] [µM],"GI50 [2, 4] [µM]",GI50 ([3]; Homo sapiens) [µM],"GI50 ([2]; read-out: Proliferation Assay SW48 (GI50), SW48 cell line, geometric means of at least 2 determinations) [µM]","GI50 ([3]; DLD1-WRN-KO cell line, geometric means of at least 2 determinations) [µM]",SMILES
0.11,0.05,> 10,–,–,"CCc1c(N2CCN(C(=O)c3nccc(F)c3O)CC2)c(=O)n2nc(C3=CCOCC3)nc2n1CC(=O)Nc1ccc(C(F)(F)F)cc1C [Example 63, 2-(2-(3,6-dihydro-2H-pyran-4-yl)-5-ethyl-6-(4-(4-fluoro-3-hydroxypicolinoyl)piperazin-1-yl)-7-oxo-[1,2,4]triazolo[1,5-a]pyrimidin-4(7H)-yl)-N-(2-methyl-4-(trifluoromethyl)phenyl)acetamide]"
0.16,0.25,> 10,–,–,"CCc1c(N2CCN(C(=O)c3nccc(Cl)c3O)CC2)c(=O)n2nc(C3=CCCCO3)nc2n1CC(=O)Nc1ccc(C(F)(F)F)nc1C [Example 56, 2-(6-(4-(4-chloro-3-hydroxypicolinoyl)piperazin-1-yl)-2-(3,4-dihydro-2H-pyran-6-yl)-5-ethyl-7-oxo-[1,2,4]triazolo[1,5-a]pyrimidin-4(7H)-yl)-N-(2-methyl-6-(trifluoromethyl)pyridin-3-yl)acetamide]"
0.31,0.1,> 10,–,–,"CCc1c(N2CCN(C(=O)c3ncccc3O)CC2)c(=O)n2nc(N3CCC(N(C)CC(F)F)CC3)nc2n1CC(=O)Nc1ccc(C(F)(F)F)nc1Cl [Example 20, N-(2-chloro-6-(trifluoromethyl)pyridin-3-yl)-2-(2-(4-((2,2-difluoroethyl)(methyl)amino)piperidin-1-yl)-5-ethyl-6-(4-(3-hydroxypicolinoyl)piperazin-1-yl)-7-oxo-[1,2,4]triazolo[1,5-a]pyrimidin-4(7H)-yl)acetamide]"
0.04,–,–,0.06,> 10,"CCc1c(N2CCN(C(=O)c3ncccc3O)CC2)c(=O)n2nc(C3=CC[C@H](OC)CC3)nc2n1CC(=O)Nc1ccc(C(F)(F)F)cc1 (single isomer, unassigned) [Example 81b, ((R)-2-(5-ethyl-6-(4-(3-hydroxypicolinoyl)piperazin-1-yl)-2-(4-methoxycyclohex-1-en-1-yl)-7-oxo-[1,2,4]triazolo[1,5-a]pyrimidin-4(7H)-yl)-N-(4-(trifluoromethyl)phenyl)acetamide or ((S)-2-(5-ethyl-6-(4-(3-hydroxypicolinoyl)piperazin-1-yl)-2-(4-methoxycyclohex-1-en-1-yl)-7-oxo-[1,2,4]triazolo[1,5-a]pyrimidin-4(7H)-yl)-N-(4-(trifluoromethyl)phenyl)acetamide]"
0.09,0.08,> 10,–,–,"CCc1c(N2CCN(C(=O)c3ncnc(C)c3O)[C@H](C)C2)c(=O)n2nc(C3=CCOCC3)nc2n1CC(=O)Nc1ccc(C(F)(F)F)cc1Cl [Example 86, (R)—N-(2-chloro-4-(trifluoromethyl)phenyl)-2-(2-(3,6-dihydro-2H-pyran-4-yl)-5-ethyl-6-(4-(5-hydroxy-6-methylpyrimidine-4-carbonyl)-3-methylpiperazin-1-yl)-7-oxo-[1,2,4]triazolo[1,5-a]pyrimidin-4(7H)-yl)acetamide]"
0.06,0.06,> 10,–,–,"CCc1c(N2CCN(C(=O)c3ncccc3O)CC2)c(=O)n2nc(C3=CCOCC3)nc2n1CC(=O)Nc1ccc(C(F)(F)F)cc1Cl [Example 96, N-(2-chloro-4-(trifluoromethyl)phenyl)-2-(2-(3,6-dihydro-2H-pyran-4-yl)-5-ethyl-6-(4-(3-hydroxypicolinoyl)piperazin-1-yl)-7-oxo-[1,2,4]triazolo[1,5-a]pyrimidin-4(7H)-yl)acetamide]"
0.1,0.21,> 10,–,–,"CCc1c(N2CCN(C(=O)c3ncccc3O)CC2)c(=O)n2nc(C3=CCOCC3)nc2n1CC(=O)Nc1ccc(Cl)cc1Cl [Example 101, N-(2,4-dichlorophenyl)-2-(2-(3,6-dihydro-2H-pyran-4-yl)-5-ethyl-6-(4-(3-hydroxypicolinoyl)piperazin-1-yl)-7-oxo-[1,2,4]triazolo[1,5-a]pyrimidin-4(7H)-yl)acetamide]"
0.13,0.3,> 10,–,–,"Cc1ccnc(C(=O)N2CCN(c3c(C)n(CC(=O)Nc4ccc(C(F)(F)F)cc4)c4nc(C5=CCOCC5)nn4c3=O)CC2)c1O [Example 90, 2-(2-(3,6-dihydro-2H-pyran-4-yl)-6-(4-(3-hydroxy-4-methylpicolinoyl)piperazin-1-yl)-5-methyl-7-oxo-[1,2,4]triazolo[1,5-a]pyrimidin-4(7H)-yl)-N-(4-(trifluoromethyl)phenyl)acetamide]"
0.36,0.39,> 10,–,–,"CCc1c(N2CCN(C(=O)c3ncnc(C)c3O)[C@@H]3CC[C@H]32)c(=O)n2nc(C3=CCOCC3)nc2n1CC(=O)Nc1ccc(C(F)(F)F)cc1Cl [Example 124, N-(2-chloro-4-(trifluoromethyl)phenyl)-2-(2-(3,6-dihydro-2H-pyran-4-yl)-5-ethyl-6-((1R,6R)-5-(5-hydroxy-6-methylpyrimidine-4-carbonyl)-2,5-diazabicyclo[4.2.0]octan-2-yl)-7-oxo-[1,2,4]triazolo[1,5-a]pyrimidin-4(7H)-yl)acetamide]"
0.05,0.24,6.1,–,–,"CCc1c(N2CCN(S(=O)(=O)c3ncccc3O)CC2)c(=O)n2nc(C3=CCOCC3)nc2n1CC(=O)Nc1ccc(C(F)(F)F)cc1Cl [Example 137, N-(2-chloro-4-(trifluoromethyl)phenyl)-2-(2-(3,6-dihydro-2H-pyran-4-yl)-5-ethyl-6-(4-((3-hydroxypyridin-2-yl)sulfonyl)piperazin-1-yl)-7-oxo-[1,2,4]triazolo[1,5-a]pyrimidin-4(7H)-yl)acetamide]"
0.04,0.12,> 10,–,–,"CCc1c(N2CCN(C(=O)c3ncccc3O)CC2)c(=O)n2nc(C3=COCCO3)nc2n1CC(=O)Nc1ccc(C(F)(F)F)cc1C [Example 113, 2-(2-(5,6-dihydro-1,4-dioxin-2-yl)-5-ethyl-6-(4-(3-hydroxypicolinoyl)piperazin-1-yl)-7-oxo-[1,2,4]triazolo[1,5-a]pyrimidin-4(7H)-yl)-N-(2-methyl-4-(trifluoromethyl)phenyl)acetamide]"
0.02,0.03,> 10,–,–,"CCc1c(N2CCN(C(=O)c3nccc(F)c3O)CC2)c(=O)n2nc(C3=CCOCC3)nc2n1CC(=O)Nc1ccc(C(F)(F)F)cc1Cl [Example 40, N-(2-chloro-4-(trifluoromethyl)phenyl)-2-(2-(3,6-dihydro-2H-pyran-4-yl)-5-ethyl-6-(4-(4-fluoro-3-hydroxypicolinoyl)piperazin-1-yl)-7-oxo-[1,2,4]triazolo[1,5-a]pyrimidin-4(7H)-yl)acetamide]"
0.08,0.09,> 10,–,–,"CCc1c(N2CCN(C(=O)c3ncnc(C)c3O)CC2)c(=O)n2nc(C3=CCOCC3)nc2n1CC(=O)Nc1ccc(C(F)(F)F)cc1Br [Example 108, N-(2-bromo-4-(trifluoromethyl)phenyl)-2-(2-(3,6-dihydro-2H-pyran-4-yl)-5-ethyl-6-(4-(5-hydroxy-6-methylpyrimidine-4-carbonyl)piperazin-1-yl)-7-oxo-[1,2,4]triazolo[1,5-a]pyrimidin-4(7H)-yl)acetamide]"
0.47,0.93,> 10,–,–,"CCc1c(N2CCN(C(=O)c3ncnc(C)c3O)[C@@H](C)[C@@H]2C)c(=O)n2nc(C3=CCOCC3)nc2n1CC(=O)Nc1ccc(C(F)(F)F)cc1Cl [Example 120, N-(2-chloro-4-(trifluoromethyl)phenyl)-2-(2-(3,6-dihydro-2H-pyran-4-yl)-5-ethyl-6-((2S,3S)-4-(5-hydroxy-6-methylpyrimidine-4-carbonyl)-2,3-dimethylpiperazin-1-yl)-7-oxo-[1,2,4]triazolo[1,5-a]pyrimidin-4(7H)-yl)acetamide]"

SMILES,IC50 [1] [µM],"GI50 [2, 4] [µM]",GI50 ([3]; Homo sapiens) [µM],"GI50 ([2]; read-out: Proliferation Assay SW48 (GI50), SW48 cell line, geometric means of at least 2 determinations) [µM]","GI50 ([3]; DLD1-WRN-KO cell line, geometric means of at least 2 determinations) [µM]"
"Cc1c(N2CCN(C(=O)c3ncccc3O)CC2)c(=O)n2nc(N3CC4CC(C3)O4)nc2n1CC(=O)Nc1ccc(C(F)(F)F)cc1F [Example 22, 2-(2-(6-oxa-3-azabicyclo[3.1.1]heptan-3-yl)-6-(4-(3-hydroxypicolinoyl)piperazin-1-yl)-5-methyl-7-oxo-[1,2,4]triazolo[1,5-a]pyrimidin-4(7H)-yl)-N-(2-fluoro-4-(trifluoromethyl)phenyl)acetamide]",0.6,2.63,> 10,–,–
